In PubChem BioAssay (NCI):
Values joined by “and” are separate entries in the source; they are usually repeats but may differ in a detail not shown here. Equal entries are not always repeated.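 Protocol summary: plate cells (96-well), add compound at 5 concentrations, incubate 48 h, interpolate endpoints linearly. Here, GI50 denotes the concentration required for 50% inhibition of growth. The concentration for full growth arrest is given as TGI.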

Legend:
Experiment in all cases: NCI-60 cell line screen, 48 h
786-0 renal = system: 786-0 renal
NCI/ADR-RES ovarian = system: NCI/ADR-RES ovarian
OVCAR-3 ovarian = system: OVCAR-3 ovarian
UACC-257 melanoma = system: UACC-257 melanoma
UACC-62 melanoma = system: UACC-62 melanoma
M14 melanoma = system: M14 melanoma
RXF 393 renal = system: RXF 393 renal
MCF7 breast = system: MCF7 breast
U251 CNS = system: U251 CNS
MALME-3M melanoma = system: MALME-3M melanoma
MOLT-4 leukemia = system: MOLT-4 leukemia
NCI-H460 lung = system: NCI-H460 lung
HCT-15 colon = system: HCT-15 colon
NCI-H23 lung = system: NCI-H23 lung

| SMILES | TGI (786-0 renal) | TGI (NCI/ADR-RES ovarian) | GI50 (OVCAR-3 ovarian) | TGI (OVCAR-3 ovarian) | TGI (UACC-257 melanoma) | GI50 (UACC-62 melanoma) | TGI (UACC-62 melanoma) | TGI (M14 melanoma) | TGI (RXF 393 renal) | GI50 (MCF7 breast) | TGI (MCF7 breast) | GI50 (U251 CNS) | TGI (U251 CNS) | TGI (MALME-3M melanoma) | GI50 (MOLT-4 leukemia) | TGI (MOLT-4 leukemia) | GI50 (NCI-H460 lung) | TGI (NCI-H460 lung) | TGI (HCT-15 colon) | TGI (NCI-H23 lung) |
| --- | --- | --- | --- | --- | --- | --- | --- | --- | --- | --- | --- | --- | --- | --- | --- | --- | --- | --- | --- | --- |
| C=CCN1C(=O)/C(=C/c2ccc(OC)cc2)N=C1SC1OC(COC(C)=O)C(OC(C)=O)C(OC(C)=O)C1OC(C)=O (configuration not stated) | > 100 µM | > 100 µM | 13.5 µM and 58.2 µM | 30 µM and > 100 µM | 45.9 µM and > 100 µM | 18.8 µM and 43.6 µM | 48.1 µM and > 100 µM | > 100 µM | 46.5 µM and 89.5 µM | 11.7 µM and > 100 µM | > 100 µM | 14.8 µM and 99.1 µM | 58.8 µM and > 100 µM | > 100 µM | 58.3 µM and 24.7 µM | > 100 µM | 24.7 µM and 99.9 µM | > 100 µM | > 100 µM | > 100 µM |
| COc1cc(/C=C2\C(=O)N(c3ccc(NC(C)=O)cc3)C(c3ccccc3)S2(=O)=O)cc(OC)c1OC (configuration not stated) | > 100 µM | > 100 µM |  | > 100 µM | > 100 µM |  | > 100 µM | > 100 µM | > 100 µM |  | > 100 µM |  | > 100 µM | > 100 µM |  | > 100 µM |  | > 100 µM | > 100 µM | > 100 µM |
| CC1=NN(C(=O)CC(=O)Nc2ccc(Cl)cc2)C(=O)C1N=Nc1ccc(S(=O)(=O)c2ccc(N=NC3C(=O)N(C(=O)CC(=O)Nc4ccc(Cl)cc4)N=C3C)cc2)cc1 (configuration not stated) | > 100 µM | > 100 µM |  | > 100 µM | > 100 µM |  | > 100 µM | > 100 µM | > 100 µM |  | > 100 µM |  | 59.6 µM | > 100 µM |  | > 100 µM |  | > 100 µM | > 100 µM | > 100 µM |
| O=C1O/C(=C(/Cl)c2c3ccccc3cc3ccccc23)c2ccccc21 | 40.5 µM | > 100 µM |  | 60.9 µM | > 100 µM |  | > 100 µM | 53.8 µM | 96.4 µM |  | > 100 µM |  | > 100 µM | > 100 µM |  | > 100 µM |  | > 100 µM | > 100 µM | 79.9 µM |
| COc1cc(OC)c2nc(C)c3c(c2c1)OCC3 | > 100 µM | > 100 µM |  | > 100 µM | > 100 µM |  | > 100 µM | > 100 µM | 62.6 µM |  | > 100 µM |  | > 100 µM | > 100 µM |  | > 100 µM |  | > 100 µM | > 100 µM | > 100 µM |
| O=C1CC2(CCNCC2)C(=O)N1N1CCCCC1 | > 100 µM | > 100 µM |  | > 100 µM | > 100 µM |  | > 100 µM | > 100 µM | > 100 µM |  | > 100 µM |  | > 100 µM | > 100 µM |  | > 100 µM |  | > 100 µM | > 100 µM | > 100 µM |
| CCOC(=O)C(C)c1nc2cc(C(F)(F)F)ccc2[nH]c1=O (configuration not stated) | > 100 µM | > 100 µM |  | > 100 µM | > 100 µM |  | > 100 µM | > 100 µM | > 100 µM |  | > 100 µM |  | > 100 µM | > 100 µM |  | > 100 µM |  | > 100 µM | > 100 µM | > 100 µM |
| CCNC1=C(NC(=O)c2ccc(OC)cc2)C(=O)c2ccccc2C1=O | > 100 µM | 99.5 µM |  | 87.7 µM | 48 µM |  | > 100 µM | 55.9 µM | 88.2 µM |  | > 100 µM |  | > 100 µM | 50.9 µM |  | > 100 µM |  | > 100 µM | > 100 µM | > 100 µM |
| [O-]/[N+](=N/c1ncc(-c2ccccc2)cn1)c1ncc(-c2ccccc2)cn1 | > 100 µM | > 100 µM |  | > 100 µM | > 100 µM |  | > 100 µM | > 100 µM | > 100 µM |  | > 100 µM |  | > 100 µM | > 100 µM |  | > 100 µM |  | > 100 µM | > 100 µM | > 100 µM |
